Data taken from PubChem BioAssay AID1159564 (GlaxoSmithKline (GSK), 2015).
Active and inactive are the calls of the source. How the calls were made is not given here.

System: L. donovani-infected THP-1 macrophages, intracellular amastigote imaging
Assay: antileishmanial activity in infected THP-1 macrophages – imaging, THP-1 host macrophages, host toxicity (AID 1159564)
[1] = measured here: THP-1 host cell toxicity
[2] = measured here: amastigotes per macrophage

SMILES | IC50 | IC50 [1] [µM] | IC50 [2] [µM]
N#CN1CC[C@@H](NC(=O)Nc2ccccc2Oc2ccccc2)C1 | 5 µM | 25 | 4
O=C(Cc1ccccc1)Nc1[nH]nc2sc(C(=O)NC3CCCC3)cc12 | 3.2 µM | 1.6 | 1.6
c1ccc(-c2nc(NC3CCCCC3)cc(C3CC3)n2)nc1 | 4 µM | 20 | 3.2
Cc1cccnc1NC(=O)c1cccc(OCc2c(C)noc2C)c1 | 20 µM | 6.3 | 10
Cc1nc(C(=O)Nc2ccc3c(c2)OCO3)nn1-c1ccc(F)cc1 | 7.9 µM | > 50 | 2.5
COc1ccc2nccc(NC(=O)C3(OC)CCN(CC(O)c4ccc5c(c4)OCCO5)CC3)c2n1 (configuration not stated) | 20 µM | 25 | 6.3
CC(C(=O)Nc1ccc(Br)cc1)N1CCN(c2ccc([N+](=O)[O-])cc2)CC1 (configuration not stated) | > 50 µM (inactive) | > 50 | > 50
CS(=O)(=O)c1ccc(Nc2nccc(Nc3n[nH]c4ccc(F)cc34)n2)c(F)c1 | 13 µM | 16 | 10
COc1ccc(Oc2ccc(C(C)N(C)c3ncc4c(N)nc(N)nc4n3)cc2)cc1 (configuration not stated) | 0.1 µM | 16 | 0.05
O=C(Nc1nc(-c2ccccn2)cs1)c1ccc(S(=O)(=O)N2CCCCC2)cc1 | 1.3 µM | 13 | 1
CN(Cc1nnnn1C1CCN(Cc2ccc(-n3ccnc3)cc2)CC1)c1ccc(F)cc1F | > 50 µM (inactive) | > 50 | 16
COc1ccc(NS(=O)(=O)c2cccc(NC(=O)c3cc(F)cc(F)c3)c2)cc1 | > 50 µM (inactive) | > 50 | 20
CC(c1ccc2c(c1)CCCC2)N(C)c1ncc2c(N)nc(N)nc2n1 (configuration not stated) | 2 µM | 25 | 0.79
Cc1cc(C)n(-c2nc(NC(C)C)nc(NC(C)(C)C)n2)n1 | 5 µM | 6.3 | 4
N#Cc1nc(C=Cc2ccccc2)oc1NCc1cccnc1 | 40 µM | 32 | 32
CC(=Cc1ccccc1)CN1CCC(=O)N(Cc2cccnc2)CC1 | > 50 µM (inactive) | 40 | 32
c1ccc(Nc2nc(-c3ccccn3)cc(N3CCOCC3)n2)cc1 | 2 µM | > 50 | 1.3

SMILES | IC50 | IC50 [1] [µM] | IC50 [2] [µM]
COc1ccc(-c2csc(NC(=O)c3ccc([N+](=O)[O-])s3)n2)cc1OC | 1.3 µM | 32 | 1.3
CC1CCCCN1C(=O)NCCc1coc(-c2ccc(F)cc2)n1 (configuration not stated) | > 50 µM (inactive) | > 50 | > 50
CCOc1ccc(CN(C)Cc2nc(N)nc(Nc3ccc(C)cc3)n2)cc1 | 4 µM | 40 | 3.2
COCc1cnc2c(c1SCc1c(F)cccc1Cl)c(=O)n(C)c(=O)n2C | 5 µM | > 50 | 5
COc1ccc(Nc2nccc(N(C)c3n[nH]c4c(F)cccc34)n2)cc1S(C)(=O)=O | 2.5 µM | 10 | 1
CS(=O)(=O)c1cccc(CNC(=O)c2cncc(N3CCN(c4ccc(F)cc4)CC3)c2)c1 | > 50 µM (inactive) | > 50 | > 50
COc1cccc(-c2c(C)nn(-c3nc(N)nc(-c4ccccn4)n3)c2N)c1 | 2 µM | > 50 | 1.6
c1ccc2[nH]c(-c3ccc(N4CCCC4)nc3)nc2c1 | > 50 µM (inactive) | 32 | > 50
Cc1cc(Oc2cc(Cl)c(Cl)cc2Cl)n2ncnc2n1 | 16 µM | 10 | 13
COc1ccc(Cc2nc(-c3ncc4cccnc4c3O)n[nH]2)cc1OC | 3.2 µM | 20 | 2.5
OC[C@@H](Nc1nccc(-c2c(-c3ccc(F)cc3)ncn2C2CCNCC2)n1)c1ccccc1 | 32 µM | 32 | 32
COc1ccc(CN2C(=O)C(O)(CC(=O)c3ccncc3)c3cc(Br)ccc32)cc1OC (configuration not stated) | 25 µM | 40 | 20
CCCCNc1nccc(-c2c(-c3ccc(F)cc3)nn3c(N4CCOCC4)cccc23)n1 | 6.3 µM | 13 | > 50
CN(C(=O)Nc1ccc2c(c1)CCN(C1CCC1)CC2)c1ccc(C#N)cc1 | > 50 µM (inactive) | > 50 | > 50
COc1ccc(C2CC(c3ccccc3Cl)=NN2C(=O)CNC(=O)C2CCC2)cc1 (configuration not stated) | > 50 µM (inactive) | > 50 | > 50
CN(C)c1ccc(N)cc1CN(CC1CCCO1)S(C)(=O)=O (configuration not stated) | 13 µM | > 50 | 10
CNc1cncc(C2CCCN2C(=O)Cc2ccc3ccccc3c2)n1 (configuration not stated) | > 50 µM (inactive) | > 50 | > 50
